Measured values taken from US11399539B2, “Heterocyclic compound and harmful arthropod controlling agent containing same” (Sumitomo Chemical Company, Limited, priority 2016, dated 2022).

System: cabbage aphids (Brevicoryne brassicae)
Experiment: Test Example 8 and Comparative Test: spray on cabbage seedling infested with cabbage aphids
Type: in vivo
Conditions: Comparative Test according to Test example 8

Point of comparison: `CCS(=O)(=O)c1cc(C(F)(F)F)cnc1-n1ccc(C(F)(F)F)cc1=O` [A-48], “Controlling value at 500 ppm (%)” value 93%. Against it:
- CCS(=O)(=O)c1cc(C(F)(F)F)cnc1-n1cnc(C(F)(F)F)cc1=O [C-33] — lower, 77%
- O=c1cc(C(F)(F)F)ccn1-c1ncc(C(F)(F)F)cc1Cl [Comparative compound 1] — lower, 7%
- O=c1cc(C(F)(F)F)ncn1-c1ncc(C(F)(F)F)cc1Cl [Comparative compound 2] — lower, 14%
